ChEMBL document CHEMBL2417492, “Structural studies of β-hairpin peptidomimetic antibiotics that target LptD in Pseudomonas sp” (2013)
Converted amounts (≈) assume the structure as drawn.

Test system: Pseudomonas aeruginosa
Assay: Antibacterial activity against Pseudomonas aeruginosa ATCC 27853 assessed as growth inhibition
Format: functional

Row | SMILES | MIC [µg/mL]
1 | CC(C)C[C@@H]1NC(=O)[C@H](Cc2c[nH]c3ccccc23)NC(=O)[C@H]([C@@H](C)O)NC(=O)[C@@H]2CCCN2C(=O)[C@H]2CCCN2C(=O)[C@H](CCCCN)NC(=O)[C@H](C)NC(=O)[C@H](CCCCN)NC(=O)[C@H](CCCCN)NC(=O)[C@H](Cc2ccccc2)NC(=O)[C@H](CCCNC(=N)N)NC(=O)[C@H](CCCNC(=N)N)NC(=O)[C@H](CCCCN)NC(=O)[C@H](CCCCN)NC1=O | 0.1 (≈ 0.0566 µM)
2 | CC(C)C[C@@H]1NC(=O)[C@H](Cc2ccccc2)NC(=O)[C@H]([C@@H](C)O)NC(=O)[C@@H]2CCCN2C(=O)[C@H]2CCCN2C(=O)[C@H](CCCCN)NC(=O)[C@H](C)NC(=O)[C@H](CCCCN)NC(=O)[C@H](CCCCN)NC(=O)[C@H](Cc2c[nH]c3ccccc23)NC(=O)[C@H](CCCNC(=N)N)NC(=O)[C@H](CCCNC(=N)N)NC(=O)[C@H](CCCCN)NC(=O)[C@H](CCCCN)NC1=O | 0.06 (≈ 0.034 µM)
3 | CC(C)C[C@@H]1NC(=O)[C@H](Cc2c[nH]c3ccccc23)NC(=O)[C@H]([C@@H](C)O)NC(=O)[C@@H]2CCCN2C(=O)[C@H]2CCCN2C(=O)[C@H](CCCCN)NC(=O)[C@H](C)NC(=O)[C@H](CCCCN)NC(=O)[C@H](CCCCN)NC(=O)[C@H](C)NC(=O)[C@H](CCCNC(=N)N)NC(=O)[C@H](CCCNC(=N)N)NC(=O)[C@H](CCCCN)NC(=O)[C@H](CCCCN)NC1=O | > 16
4 | CC(C)C[C@@H]1NC(=O)[C@H](Cc2c[nH]c3ccccc23)NC(=O)[C@H]([C@@H](C)O)NC(=O)[C@@H]2CCCN2C(=O)[C@H]2CCCN2C(=O)[C@H](CCCCN)NC(=O)[C@H](C)NC(=O)[C@H](CCCCN)NC(=O)[C@H](CCCCN)NC(=O)[C@H](Cc2c[nH]c3ccccc23)NC(=O)[C@H](CCCNC(=N)N)NC(=O)[C@H](C)NC(=O)[C@H](CCCCN)NC(=O)[C@H](CCCCN)NC1=O | 0.03 (≈ 0.0174 µM)
5 | CC(C)C[C@@H]1NC(=O)[C@H](Cc2c[nH]c3ccccc23)NC(=O)[C@H]([C@@H](C)O)NC(=O)[C@@H]2CCCN2C(=O)[C@H]2CCCN2C(=O)[C@H](CCCCN)NC(=O)[C@H](C)NC(=O)[C@H](C)NC(=O)[C@H](CCCCN)NC(=O)[C@H](Cc2c[nH]c3ccccc23)NC(=O)[C@H](CCCNC(=N)N)NC(=O)[C@H](CCCNC(=N)N)NC(=O)[C@H](CCCCN)NC(=O)[C@H](CCCCN)NC1=O | 0.06 (≈ 0.0343 µM)
6 | CC(C)C[C@@H]1NC(=O)[C@H](Cc2c[nH]c3ccccc23)NC(=O)[C@H]([C@@H](C)O)NC(=O)[C@@H]2CCCN2C(=O)[C@H]2CCCN2C(=O)[C@H](CCCCN)NC(=O)[C@H](C)NC(=O)[C@H](CCCCN)NC(=O)[C@H](CCCCN)NC(=O)[C@H](Cc2ccc(O)cc2)NC(=O)[C@H](CCCNC(=N)N)NC(=O)[C@H](CCCNC(=N)N)NC(=O)[C@H](CCCCN)NC(=O)[C@H](CCCCN)NC1=O | 0.3 (≈ 0.168 µM)
7 | CC(C)C[C@@H]1NC(=O)[C@H](Cc2c[nH]c3ccccc23)NC(=O)[C@H]([C@@H](C)O)NC(=O)[C@@H]2CCCN2C(=O)[C@H]2CCCN2C(=O)[C@H](CCCCN)NC(=O)[C@H](C)NC(=O)[C@H](CCCCN)NC(=O)[C@H](CCCCN)NC(=O)[C@H](Cc2c[nH]c3ccccc23)NC(=O)[C@H](CCCNC(=N)N)NC(=O)[C@H](CCCNC(=N)N)NC(=O)[C@H](C)NC(=O)[C@H](CCCCN)NC1=O | 0.1 (≈ 0.0572 µM)
8 | C[C@@H]1NC(=O)[C@H](CCCCN)NC(=O)[C@H](CCCCN)NC(=O)[C@H](Cc2c[nH]c3ccccc23)NC(=O)[C@H](CCCNC(=N)N)NC(=O)[C@H](CCCNC(=N)N)NC(=O)[C@H](CCCCN)NC(=O)[C@H](CCCCN)NC(=O)[C@H](C)NC(=O)[C@H](Cc2c[nH]c3ccccc23)NC(=O)[C@H]([C@@H](C)O)NC(=O)[C@@H]2CCCN2C(=O)[C@H]2CCCN2C(=O)[C@H](CCCCN)NC1=O | 0.1 (≈ 0.0567 µM)
9 | CC(C)C[C@@H]1NC(=O)[C@H](Cc2c[nH]c3ccccc23)NC(=O)[C@H]([C@@H](C)O)NC(=O)[C@@H]2CCCN2C(=O)[C@H]2CCCN2C(=O)[C@H](CCCCN)NC(=O)[C@H](C)NC(=O)[C@H](CCCCN)NC(=O)[C@H](C)NC(=O)[C@H](Cc2c[nH]c3ccccc23)NC(=O)[C@H](CCCNC(=N)N)NC(=O)[C@H](CCCNC(=N)N)NC(=O)[C@H](CCCCN)NC(=O)[C@H](CCCCN)NC1=O | 0.06 (≈ 0.0343 µM)
10 | CC(C)C[C@@H]1NC(=O)[C@H](Cc2c[nH]c3ccccc23)NC(=O)[C@H]([C@@H](C)O)NC(=O)[C@@H]2CCCN2C(=O)[C@H]2CCCN2C(=O)[C@H](CCCCN)NC(=O)[C@H](C)NC(=O)[C@H](CCCCN)NC(=O)[C@H](CCCCN)NC(=O)[C@H](Cc2c[nH]c3ccccc23)NC(=O)[C@H](CCCNC(=N)N)NC(=O)[C@H](CCCNC(=N)N)NC(=O)[C@H](CCCCN)NC(=O)[C@H](CCCCN)NC1=O | 0.01 (≈ 0.00554 µM)
11 | CC(C)C[C@@H]1NC(=O)[C@H](Cc2c[nH]c3ccccc23)NC(=O)[C@H]([C@@H](C)O)NC(=O)[C@@H]2CCCN2C(=O)[C@H]2CCCN2C(=O)[C@H](C)NC(=O)[C@H](C)NC(=O)[C@H](CCCCN)NC(=O)[C@H](CCCCN)NC(=O)[C@H](Cc2c[nH]c3ccccc23)NC(=O)[C@H](CCCNC(=N)N)NC(=O)[C@H](CCCNC(=N)N)NC(=O)[C@H](CCCCN)NC(=O)[C@H](CCCCN)NC1=O | 0.03 (≈ 0.0172 µM)
12 | CC(C)C[C@@H]1NC(=O)[C@H](CCCNC(=N)N)NC(=O)[C@H](CCCNC(=N)N)NC(=O)[C@H](CCCCN)NC(=O)[C@H](CCCCN)NC(=O)[C@H](CC(C)C)NC(=O)[C@H](Cc2c[nH]c3ccccc23)NC(=O)[C@H]([C@@H](C)O)NC(=O)[C@@H]2CCCN2C(=O)[C@H]2CCCN2C(=O)[C@H](CCCCN)NC(=O)[C@H](C)NC(=O)[C@H](CCCCN)NC(=O)[C@H](CCCCN)NC1=O | 0.1 (≈ 0.0577 µM)
13 | CC(C)C[C@@H]1NC(=O)[C@H](Cc2c[nH]c3ccccc23)NC(=O)[C@H]([C@@H](C)O)NC(=O)[C@@H]2CCCN2C(=O)[C@H]2CCCN2C(=O)[C@H](CCCCN)NC(=O)[C@H](C)NC(=O)[C@H](CCCCN)NC(=O)[C@H](CCCCN)NC(=O)[C@H](Cc2c[nH]c3ccccc23)NC(=O)[C@H](C)NC(=O)[C@H](CCCNC(=N)N)NC(=O)[C@H](CCCCN)NC(=O)[C@H](CCCCN)NC1=O | 0.06 (≈ 0.0349 µM)
14 | CC(C)C[C@@H]1NC(=O)[C@H](Cc2c[nH]c3ccccc23)NC(=O)[C@H]([C@@H](C)O)NC(=O)[C@@H]2CCCN2C(=O)[C@H]2CCCN2C(=O)[C@H](CCCCN)NC(=O)[C@H](C)NC(=O)[C@H](CCN)NC(=O)[C@H](CCCN)NC(=O)[C@H](Cc2c[nH]c3ccccc23)NC(=O)[C@H](CCCNC(=N)N)NC(=O)[C@@H](CCCCN)NC(=O)[C@H](CCCN)NC(=O)[C@H](CCN)NC1=O | 0.01 (≈ 0.00591 µM)
15 | CC(C)C[C@@H]1NC(=O)[C@H](Cc2c[nH]c3ccccc23)NC(=O)[C@H](C)NC(=O)[C@@H]2CCCN2C(=O)[C@H]2CCCN2C(=O)[C@H](CCCCN)NC(=O)[C@H](C)NC(=O)[C@H](CCCCN)NC(=O)[C@H](CCCCN)NC(=O)[C@H](Cc2c[nH]c3ccccc23)NC(=O)[C@H](CCCNC(=N)N)NC(=O)[C@H](CCCNC(=N)N)NC(=O)[C@H](CCCCN)NC(=O)[C@H](CCCCN)NC1=O | 0.01 (≈ 0.00563 µM)
16 | CC(C)C[C@@H]1NC(=O)[C@H](C)NC(=O)[C@H]([C@@H](C)O)NC(=O)[C@@H]2CCCN2C(=O)[C@H]2CCCN2C(=O)[C@H](CCCCN)NC(=O)[C@H](C)NC(=O)[C@H](CCCCN)NC(=O)[C@H](CCCCN)NC(=O)[C@H](Cc2c[nH]c3ccccc23)NC(=O)[C@H](CCCNC(=N)N)NC(=O)[C@H](CCCNC(=N)N)NC(=O)[C@H](CCCCN)NC(=O)[C@H](CCCCN)NC1=O | > 16
17 | CC(C)C[C@@H]1NC(=O)[C@H](Cc2c[nH]c3ccccc23)NC(=O)[C@H]([C@@H](C)O)NC(=O)[C@@H]2CCCN2C(=O)[C@H]2CCCN2C(=O)[C@H](CCCCN)NC(=O)[C@H](C)NC(=O)[C@H](CCCCN)NC(=O)[C@H](CCCCN)NC(=O)[C@H](Cc2c[nH]c3ccccc23)NC(=O)[C@H](CCCNC(=N)N)NC(=O)[C@H](CCCNC(=N)N)NC(=O)[C@H](CCCCN)NC(=O)[C@H](C)NC1=O | 0.05 (≈ 0.0286 µM)
18 | CC(C)C[C@@H]1NC(=O)[C@H](CC(C)C)NC(=O)[C@H]([C@@H](C)O)NC(=O)[C@@H]2CCCN2C(=O)[C@H]2CCCN2C(=O)[C@H](CCCCN)NC(=O)[C@H](C)NC(=O)[C@H](CCCCN)NC(=O)[C@H](CCCCN)NC(=O)[C@H](Cc2c[nH]c3ccccc23)NC(=O)[C@H](CCCNC(=N)N)NC(=O)[C@H](CCCNC(=N)N)NC(=O)[C@H](CCCCN)NC(=O)[C@H](CCCCN)NC1=O | 1 (≈ 0.577 µM)
19 | CC(C)C[C@@H]1NC(=O)[C@H](Cc2ccc(O)cc2)NC(=O)[C@H]([C@@H](C)O)NC(=O)[C@@H]2CCCN2C(=O)[C@H]2CCCN2C(=O)[C@H](CCCCN)NC(=O)[C@H](C)NC(=O)[C@H](CCCCN)NC(=O)[C@H](CCCCN)NC(=O)[C@H](Cc2c[nH]c3ccccc23)NC(=O)[C@H](CCCNC(=N)N)NC(=O)[C@H](CCCNC(=N)N)NC(=O)[C@H](CCCCN)NC(=O)[C@H](CCCCN)NC1=O | 0.06 (≈ 0.0337 µM)
20 | CC(C)C[C@@H]1NC(=O)[C@H](Cc2c[nH]c3ccccc23)NC(=O)[C@H]([C@@H](C)O)NC(=O)[C@H]2CCCN2C(=O)[C@@H]2CCCN2C(=O)[C@H](CCCCN)NC(=O)[C@H](C)NC(=O)[C@H](CCN)NC(=O)[C@H](CCCN)NC(=O)[C@H](Cc2c[nH]c3ccccc23)NC(=O)[C@H](CCCNC(=N)N)NC(=O)[C@@H](CCCCN)NC(=O)[C@H](CCCN)NC(=O)[C@H](CCN)NC1=O | ≥ 32
